The subject of one data set is erythrocytes. The experiment in a line: Cell-based antioxidant protection in erythrocytes (CAP-e) assay. How it is done: The cell-based antioxidant protection in erythrocytes (CAP-e) assay (Honzel et. al., 2008, and Jensen G S. Cell-based antioxidant protection assay, also disclosed in U.S. Pat. No. 8,465,988, incorporated herein in its entirety by this reference) was used. This testing was selected to measure antioxidant power but, in addition, the method ensures that the antioxidant agent crosses the cell's lipid boundary layer so that only intracytoplasmic activity is measured. […] The tested concentrations for both gadusol and the porphyra-334 ranged from 0.001 to 3.33 mg/mL.

Data set [1] is described as follows: Folin-Ciocalteu antioxidant capacity. The note with it: about 0.3 to 10 mg/ml.
A further data set concerns E. coli. The experiment in a line: Toxicity towards E. coli. Type of data set: cell-based. The text has this:
(§1) The amount of gadusol incorporated to provide the intended in vivo sunscreen SPF boosting activity can be from about 0.25, 0.50, 0.75, 1.0, 1.25, 1.50, 1.75, or 2.0% (w/w) in the sunscreen formulation that includes a physical/inorganic sunscreen active material, where any value can form an upper or lower endpoint, as appropriate. Still further, the amount of gadusol in the sunscreen formulation can be from about 0.25 to 2.0% (w/w), or from about 0.5 to 1.0% (w/w). In these, and possibly other amounts, gadusol suitably can provide a safe and effective sunscreen boosting effect when combined with sunscreen active ingredients. […] To summarize these safety tests, the cellular toxicity of gadusol was compared to that of a common sunscreen ingredient, oxybenzone. Vero E6 fibroblasts were used to evaluate toxicity. […] Toxicity towards E. coli was also not found.

Data set [2] can be described thus: In vitro SPF determination on VitroSkin, absorbance scan 290-400 nm. Type of data set: physicochemical. Here is the method: SPF can also be evaluated using an in vitro method that utilizes a synthetic/simulated skin as a test substrate. In this regard, VitroSkin® is an advanced testing substrate that effectively mimics the surface properties of human skin. It has been formulated to have topography, pH, critical surface tension, chemical reactivity and ionic strength that is similar to human skin.
SPF was also evaluated using an in vitro method that utilizes a synthetic/simulated skin as a test substrate. In this regard, VitroSkin® is an advanced testing substrate that effectively mimics the surface properties of human skin. It has been formulated to have topography, pH, critical surface tension, chemical reactivity and ionic strength that is similar to human skin. The procedure for in vitro testing was conducted according to a standard protocol. For testing, the test product was applied in a known amount to the substrate at an application density of 2 mg/cm^2. The in vitro SPF scores were determined using a Labsphere UV-1000 Ultraviolet Transmittance Analyzer. Spectral scans of absorbance of the artificial skin treated with a sample sunscreen formulation were performed in the UV region of 290-400 nm. The in vitro SPF was then calculated using the absorbance scan results. At least 5 in vitro SPF values were recorded for each example formulation and the averages calculated for reporting.

Data set [3] is described as follows: Stability of aqueous gadusol under acidic conditions, spectrophotometric at 296 nm. Type of data set: physicochemical. How it is done: Yet further, the inventors have determined that the stability of aqueous gadusol can be improved when stored under acidic conditions. For example, 90% gadusol activity can be retained after 90 days at pH 2.5, where the concentration of gadusol is determined spectrophotometrically at 296 nm where it has an extinction coefficient of 21,800 M^−1cm^−1. A standardized concentration curve can be used to determine an amount of gadusol in a volume sampled from a test solution at various time periods. Therefore, storage under acidic conditions may be useful for stabilizing gadusol generally, e.g., prior to introduction into a topical formulation. Combining gadusol with another antioxidant may be useful for extending the shelf life or stability of gadusol in a topical formulation.

For data set [4], the system named is human skin (subject's back). The data set can be described thus: In vivo SPF determination (FDA 21 CFR 201.327, MEDp/MEDu). The text has this:
SPF can be measured in vivo according to the methodology set out in FDA 2011 Final Rule issued on Jun. 17, 2011, by the Federal Register. This method is very similar to the ISO 24444:2010 method used to measure SPF in the EU, as well as other countries. In fact, both methods are based on the International Sun Protection Factor (SPF) test method, COLIPA: Bruxelles, Belgium, 2006. The slight differences between the ISO and FDA methods are understood to generate no meaningful difference in the results. […] The main differences between the methods are the following: the calibration times of the UV source (each 12 months for the FDA, each 18 months for the ISO); the reference sunscreen products (P2 for the FDA and P2, P3 or P7 for the ISO); progressions of exposure times used. The disclosures of each of these in vivo SPF testing methods are incorporated herein their entirety by this reference.
The product is then labeled with the appropriate SPF value indicating the amount of sunburn protection provided by the product.
An in vivo SPF determination was conducted according to FDA, 21 CFR Sec. 201.327, subpart (i), SPF Test Procedure, Sunscreen Drug Products for Over-the-Counter Human Use, Final Monograph, Federal Register, Vol. 76, No. 117, Jun. 17, 2011, the disclosure of which is incorporated herein in its entirety by this reference. […]
For a baseline value, a series of 5 UV radiation doses expressed as Joules/square meter, increasing in 25% increments, was administered to two unprotected separate locations on each test subject's back, just below the shoulder blades and above the belt-line, to determine the initial unprotected MED (MEDu).
On Day 2, subjects returned to the testing laboratory within 16 to 24 hours following completion of the MEDu doses for evaluation of their responses, and to determine each subject's unprotected MED (MEDu). A subject's Minimal Erythemal Dose (MED) was the quantity of erythema effective energy, or dose corresponding to the first site that produced the first unambiguous erythema reaction with well-defined borders. […]

Another data set in a line: Ames Test. Type of data set: cell-based.
A short description of a further data set: Comet assay. The data set is classed as cell-based.
From the text: as §1

The next data set concerns Vero E6 fibroblasts. The experiment in a line: Cellular toxicity compared to oxybenzone. Type of data set: cell-based.
From the text: as §1

As to `COC1=C(NCC(=O)O)C[C@@](O)(CO)CC1=N[C@H](C(=O)O)[C@@H](C)O` [porphyra-334, reference compound], the “interference with the protective action of gadusol when combined” value in the data set with erythrocytes (gadusol and porphyra-334 combined) is “did not interfere”.

As for `COC1=C(O)CC(O)(CO)C(O)C1=O` (stereo not shown) [gadusol], the “antioxidant power versus mycosporine compound from nori seaweed (porphyra-334)” value in data set [1] is recorded as “substantially equivalent”. Moreover, in the data set on E. coli, the “toxicity towards E. coli” value was “not found”. For the same compound, the “in vitro SPF activity of gadusol by itself, formulation matrix (1.1) subtracted” value in data set [2] (0.25-0.5% gadusol, no ZnO) was 2.5-2.8 SPF units. Further, the “greater SPF when added to composition containing 10% ZnO” value in data set [2] (0.5% (w/w) gadusol, in vitro) is recorded as around 50%. Further, in data set [2] (0.5% gadusol, about 290 to about 325 nm, FIG. 6), the “in vitro absorbance on addition to 10% ZnO sunscreen formulation” value is on record as “significantly more absorbance”. The compound also registered a gadusol activity retained in data set [3] (aqueous, after 90 days at pH 2.5) of 90%. The extinction coefficient in data set [3] (at 296 nm) is on record as 21,800 M^−1cm^−1. Besides, the entries for the “in vivo SPF relative to SPF conferred by 10% ZnO alone” value in data set [4] (0.5% gadusol (w/w) in 10% ZnO formulation), in data set [4] (0.75% gadusol (w/w) in 10% ZnO formulation) and in data set [4] (1.0% gadusol (w/w) in 10% ZnO formulation) were “about 1.35 times”, around 1.51 times and around 2.0 times, respectively. Further, the mutagenicity result in “Ames Test” is “not to be mutagenic”. Further, the “toxicity in the comet assay” value in “Comet assay” is “nor was it toxic”. Also, the cellular toxicity result with Vero E6 fibroblasts is recorded as “less toxic”. Besides, the antioxidant activity entry with erythrocytes (0.133 mg/ml) is reported as “Some in vivo antioxidant activity”. Further, the “antioxidant activity versus porphyra-334” value in the data set on erythrocytes (about 1 mg/ml) is “significantly more active”.
